Experimental data taken from the supplement of paper PMC4862054.
Several values for one entry are separate records, joined by “and”; a condition that tells them apart may be missing. Equal entries are not always repeated.

Experiments:
Test in all cases: normalised viability (% of control), CellTiter-Blue; higher = more viable cells (about 100 = DMSO control)
Conditions in all cases: incubation time: 72 h
[1] = test system: BT-474
Summary of the method: (§1)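 The reported quantity is normalised viability at a single listed concentration of the series. Compound in 5 µl medium was pre-dispensed into 384-well plates and 20 µl of breast cancer cell suspension was added for 72 h. A 2 h, 37 °C CellTiter-Blue step (2.5 µl) preceded fluorescence reading at 560/590 nm, and plates were normalised to vehicle (100) and a positive kill control (0).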

[2] = test system: BT-549
Summary of the method: as §1

[3] = test system: CAL-120
Summary of the method: as §1

[4] = test system: CAL-148
Summary of the method: as §1

[5] = test system: CAL-85-1
Summary of the method: as §1

[6] = test system: HCC1599
Summary of the method: as §1

[7] = test system: HDQ-P1
Summary of the method: as §1

[8] = test system: MDA-MB-453
Summary of the method: as §1

[9] = test system: SK-BR-3
Summary of the method: as §1

COc1cc(CCc2cc(NC(=O)c3ccc(N4CC(C)NC(C)C4)cc3)n[nH]2)cc(OC)c1 (configuration not stated) [AZD4547]
normalised viability [%]
Conditions	[1]	[2]	[3]	[4]	[5]	[6]	[7]	[8]	[9]
0.3 nM	–	–	–	97.9	91	–	113	119	–
1 nM	121	89.1	86	–	–	92.5	–	–	112
3 nM	–	–	–	93.7	90	–	120	91.5	–
10 nM	–	–	–	89.7	94.6	–	117	95.8	–
100 nM	119	105	80.4	–	–	77.4	–	–	113
1000 nM	128	112	65.1	–	–	18.8	–	–	105

c1cc(CN2CCCNCCNCCCNCC2)ccc1CN1CCCNCCNCCCNCC1 [Plerixafor]
normalised viability [%]
Conditions	[1]	[2]	[3]	[4]	[5]	[6]	[7]	[8]	[9]
0.75 nM	–	–	–	77.3	91.9	–	106	116	–
2.5 nM	101	92.7	93.1	–	–	107	–	–	101
7.5 nM	–	–	–	89.2	91.3	–	123	114	–
25 nM	–	–	–	82.7	89.2	–	111	106	–
250 nM	117	95.9	91.4	–	–	98.7	–	–	99.7
2500 nM	97.6	120	96	–	–	115	–	–	106

Cc1ccc(Nc2nccc(N(C)c3ccc4c(C)n(C)nc4c3)n2)cc1S(N)(=O)=O [Pazopanib]
normalised viability [%]
Conditions	[1]	[2]	[3]	[4]	[5]	[6]	[7]	[8]	[9]
3 nM	–	–	–	78.5	92.2	–	107	97.7	–
10 nM	105	86.8	85.5	–	–	96.5	–	–	98.4
30 nM	–	–	–	88.9	77.8	–	103	108	–
100 nM	–	–	–	82.1	95.3	–	99.2	102	–
1000 nM	109	86.6	91.2	–	–	115	–	–	99
10000 nM	104	45.6	97.5	–	–	104	–	–	88.1

O=C(CCBr)N1CCN(C(=O)CCBr)CC1 [Pipobroman]
normalised viability [%]
Conditions	[1]	[2]	[3]	[4]	[5]	[6]	[7]	[8]	[9]
3 nM	–	–	–	97.9	99.3	–	104	124	–
10 nM	120	87.1	90.1	–	–	97	–	–	101
30 nM	–	–	–	102	98.6	–	83.8	95.9	–
100 nM	–	–	–	103	100	–	107	92.7	–
1000 nM	102	87.1	103	–	–	92.8	–	–	119
10000 nM	133	84.2	84.9	–	–	83.2	–	–	95.6

CNC(=O)c1cc(Oc2ccc(NC(=O)Nc3ccc(Cl)c(C(F)(F)F)c3)cc2)ccn1 [Sorafenib]
Conditions	normalised viability
[1], 1000 nM	130% and 106%
[2], 1 nM	83.7% and 97.1%
[2], 100 nM	99.5% and 82.8%
[2], 1000 nM	94.5% and 80.4%
[3], 1 nM	106% and 91.3%
[3], 100 nM	101% and 90.5%
[3], 1000 nM	96.5% and 89%
[4], 0.3 nM	101% and 88%
[4], 3 nM	99.3% and 91.5%
[4], 10 nM	102% and 87.5%
[5], 0.3 nM	98.3% and 99.7%
[5], 3 nM	104% and 98.8%
[5], 10 nM	105% and 108%
[6], 100 nM	115% and 126%
[6], 1000 nM	100% and 112%
[7], 0.3 nM	107% and 97.1%
[7], 3 nM	98.5% and 88.8%
[8], 0.3 nM	122% and 105%
[8], 3 nM	97.2% and 99.1%
[8], 10 nM	96.8% and 102%
[9], 1 nM	112% and 89.3%
[9], 100 nM	107% and 102%
[9], 1000 nM	110% and 108%

CCN(CC)CCNC(=O)c1c(C)[nH]c(/C=C2\C(=O)Nc3ccc(F)cc32)c1C [Sunitinib]
Conditions	normalised viability
[1], 1 nM	110% and 97.1%
[1], 100 nM	115% and 92.5%
[2], 1 nM	90.8% and 103%
[2], 100 nM	92.6% and 88.2%
[2], 1000 nM	89.9% and 111%
[3], 1000 nM	88.6% and 104%
[4], 0.3 nM	92.3% and 103%
[4], 3 nM	90.1% and 97.4%
[4], 10 nM	89.6% and 111%
[5], 0.3 nM	92% and 101%
[5], 3 nM	90.5% and 104%
[5], 10 nM	98.1% and 98.9%
[6], 1 nM	113% and 97.3%
[6], 100 nM	85.4% and 102%
[6], 1000 nM	101% and 90.8%
[7], 0.3 nM	101% and 95.9%
[7], 3 nM	85.3% and 98.3%
[8], 3 nM	90.5% and 94.7%
[8], 10 nM	95.2% and 82%
[9], 1 nM	94.8% and 101%
[9], 100 nM	98.3% and 96.8%
[9], 1000 nM	90.2% and 90.4%

Cn1cc(CNCC2CCN(c3ncc(C(=O)NO)cn3)CC2)c2ccccc21
normalised viability [%]
Conditions	[1]	[2]	[3]	[4]	[5]	[6]	[7]	[8]	[9]
0.3 nM	–	–	–	95.6	90	–	104	113	–
1 nM	97.9	78	88.7	–	–	101	–	–	86.2
3 nM	–	–	–	89.2	79.9	–	88.9	63.6	–
10 nM	–	–	–	53.9	65.1	–	88.6	25.8	–
100 nM	8.46	75.1	12.5	–	–	28	–	–	8.01
1000 nM	7.06	12	3.89	–	–	14.5	–	–	2.99

O=C(NC[C@H](O)CO)c1ccncc1Nc1ccc(I)cc1F
normalised viability [%]
Conditions	[1]	[2]	[3]	[4]	[5]	[6]	[7]	[8]	[9]
3 nM	–	–	–	86	79.1	–	107	99.6	–
10 nM	107	93.2	85.1	–	–	108	–	–	98.4
30 nM	–	–	–	86.4	83.4	–	97.8	89.2	–
100 nM	–	–	–	82.7	85.7	–	91.9	90.9	–
1000 nM	104	88.6	55.7	–	–	78	–	–	102
10000 nM	114	88	43.1	–	–	67.2	–	–	55.5

COc1nc(N)nc2c1ncn2[C@@H]1O[C@H](CO)[C@@H](O)[C@@H]1O [Nelarabine]
Conditions	normalised viability
[1], 10 nM	96.7% and 102%
[1], 1000 nM	92.1% and 93.3%
[1], 10000 nM	92.8% and 94.6%
[2], 10 nM	95.2% and 85.3%
[2], 1000 nM	98% and 91%
[2], 10000 nM	86.4% and 80.4%
[3], 10 nM	109% and 93.6%
[3], 1000 nM	96.1% and 105%
[3], 10000 nM	95.9% and 107%
[4], 3 nM	92% and 97%
[4], 30 nM	94.7% and 93.5%
[4], 100 nM	95.4% and 91.8%
[5], 3 nM	99.3% and 102%
[5], 30 nM	98.7% and 100%
[5], 100 nM	101% and 102%
[6], 10 nM	115% and 117%
[6], 1000 nM	108% and 123%
[6], 10000 nM	136% and 114%
[7], 3 nM	77.3% and 89.3%
[7], 30 nM	91.1% and 89.2%
[8], 3 nM	93.2% and 104%
[8], 30 nM	99.5% and 116%
[8], 100 nM	93.8% and 101%
[9], 10 nM	93.9% and 93.6%
[9], 10000 nM	102% and 82.1%

Cc1nc(Nc2ncc(C(=O)Nc3c(C)cccc3Cl)s2)cc(N2CCN(CCO)CC2)n1 [Dasatinib]
Conditions	normalised viability
[1], 1 nM	126% and 102%
[1], 100 nM	113% and 96.2%
[1], 1000 nM	97.9% and 95.4%
[2], 1 nM	102% and 95.4%
[2], 100 nM	62.5% and 51.1%
[2], 1000 nM	38.9% and 35.7%
[3], 1 nM	93.5% and 85.7%
[3], 100 nM	46% and 38.3%
[3], 1000 nM	26.6% and 22.4%
[4], 0.3 nM	97.9% and 80.8%
[4], 3 nM	110% and 85.8%
[4], 10 nM	98.1% and 88.5%
[5], 0.3 nM	97.8% and 95.5%
[5], 3 nM	84.2% and 87.7%
[5], 10 nM	87.9% and 92.9%
[6], 1 nM	109% and 107%
[6], 100 nM	103% and 114%
[6], 1000 nM	101% and 100%
[7], 0.3 nM	106% and 111%
[7], 3 nM	83.8% and 84.8%
[8], 0.3 nM	121% and 115%
[8], 3 nM	96.6% and 99.2%
[8], 10 nM	97.7% and 104%
[9], 1 nM	109% and 92.9%
[9], 100 nM	112% and 98.6%
